Experimental data published in PubChem BioAssay (NCI).
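In this assay, cells in 96-well plates receive the compound at five concentrations for 48 hours. Endpoints are linearly interpolated between the surrounding concentrations. TGI marks complete inhibition of growth.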

Experiments:
Assay in all cases: DTP human tumour cell line panel, 48 h
ACHN renal = system: ACHN renal
HCT-116 colon = system: HCT-116 colon
OVCAR-8 ovarian = system: OVCAR-8 ovarian
EKVX NSCLC = system: EKVX NSCLC
PC-3 prostate = system: PC-3 prostate
UACC-257 melanoma = system: UACC-257 melanoma
SF-268 CNS = system: SF-268 CNS
RXF 393 renal = system: RXF 393 renal
HOP-92 NSCLC = system: HOP-92 NSCLC
NCI-H460 lung = system: NCI-H460 lung

SMILES | TGI (ACHN renal) [µM] | TGI (HCT-116 colon) [µM] | TGI (OVCAR-8 ovarian) [µM] | TGI (EKVX NSCLC) [µM] | TGI (PC-3 prostate) [µM] | TGI (UACC-257 melanoma) [µM] | TGI (SF-268 CNS) [µM] | TGI (RXF 393 renal) [µM] | TGI (HOP-92 NSCLC) [µM] | TGI (NCI-H460 lung) [µM]
O=S(=O)(O)c1ccc2cc(N=Nc3c(O)ccc4ccccc34)ccc2c1 | > 100 | > 100 | > 100 | > 100 | > 100 | > 100 | > 100 | > 100 | > 100 | > 100
Nc1c(Cl)cc(-c2nc3ccccc3s2)cc1Cl | > 100 | > 100 | > 100 | > 100 | > 100 | > 100 | > 100 | > 100 | > 100 | > 100
O=c1[nH]c(=O)n(C2C(CO)OC(CO)C2O)cc1F (stereo not given) | > 100 | > 100 | > 100 | > 100 | > 100 | > 100 | > 100 | > 100 | > 100 | > 100
O=C(O)CC12CC3CC(CC(O)(C3)C1)C2 | > 100 | > 100 | > 100 | > 100 | > 100 | > 100 | 82.7 | > 100 | > 100 | > 100
COc1cccc(C(NC2=NCCC=N2)c2cc3c(cc2O)OCO3)c1O (stereo not given) | > 100 | 62.5 | 25.4 | > 100 | > 100 | > 100 | > 100 | 63 | 77.5 | > 100
c1cncc(CSc2ncnc3nc[nH]c23)c1 | > 100 | > 100 | > 100 | > 100 | > 100 | > 100 | > 100 | > 100 | > 100 | > 100
CCCC(=O)OCOC(=O)N(C)N=Nc1ccc(C(=O)OCC)cc1 | 56.7 | 46.6 | 84.7 | > 100 | 97.1 | > 100 | > 100 | 33.5 | 63.7 | 71.8
O=C(NCCCCCCCN1CCCCCCC1)C(C1CCCCC1)C1CCCCC1 | 24.4 | 21.5 | 26 | 18.9 | 21.1 | 4.79 | 32.5 | 17 | 23.7 | 23.6
O/N=C1/CCCc2nonc21 | > 100 | > 100 | > 100 | > 100 | > 100 | > 100 | > 100 | > 100 | > 100 | > 100
O=[N+]([O-])C(=C/c1cccc2ccccc12)/C(=C\c1cccc2ccccc12)[N+](=O)[O-] | 4.21 | 7.2 | 7.29 | 11.6 | > 24.3 | 5.44 | 7.67 | 3.67 | 4.25 | 7.92
CCCCN(C)C(=O)C1=C(C)NC(C)=C(C(=O)N(C)CCCC)C1 | > 100 | > 100 | > 100 | > 100 | > 100 | > 100 | > 100 | > 100 | > 100 | > 100
CC(C)CCC[C@@H](C)[C@H]1CC[C@H]2C3=C[C@H](OS(=O)(=O)O)[C@@]4(O)C[C@@H](O)CC[C@]4(C)[C@@]3(O)CC[C@]12C | > 100 | > 100 | > 100 | > 100 | > 100 | > 100 | > 100 | > 100 | > 100 | > 100
COc1ccc(NC(=O)C(=O)Cc2nc3ccc(C(=O)c4ccccc4)cc3[nH]c2=O)c([N+](=O)[O-])c1 | > 100 | > 100 | 49 | > 100 | > 100 | > 100 | > 100 | > 100 | 74.4 | > 100
CCOC(=O)/C=C/C1(CCOC(C)=O)CCCCC1 | > 10 | > 10 | > 10 | > 10 | > 10 | > 10 | > 10 | > 10 | > 10 | > 10
COC1=C2CC(C)CC(OC)C(OC(=O)CCCN)C(C)/C=C(\C)C(OC(N)=O)C(OC)/C=C\C=C(/C)C(=O)NC(=CC1=O)C2=O (stereo not given) | 17.8 | 15.9 | 21.6 | 26.6 | 22.4 | 17.7 | 24.6 | 25.6 | 14.6 | 36.5
O=C1C=C(C2=C(C3=CC(=O)c4ccccc4C3=O)C(=O)c3ccccc3C2=O)C(=O)c2ccccc21 | 37.9 | 20.5 | 19.1 | 33.8 | 47.6 | 25.4 | 33.8 | 14.5 | 18 | 39.6
CCOC(=O)/C=C\C(C#N)(C#N)N=Cc1ccsc1 | 9.26 | 4.72 | 14.6 | 30.6 | 22.7 | 20.9 | 22 | 5.46 | 4.52 | 43.7
